From patent US12545652B2, “Crystalline forms of a TYK2 inhibitor” (Sareum Limited, priority 2020, dated 2026)
Entries after “also recorded” stand apart in the source; their conditions may differ. Like-named read-outs stand apart in the source and are kept apart here.

Assays:
[1] = Hepatocyte stability assay, rat; type: in vitro ADME; conditions: male, Sprague-Dawley, pooled hepatocytes
Protocol: (§1) Test and control compounds were incubated with hepatocytes at 37° C. Aliquots were removed at 6 timepoints over a one hour period. Samples were centrifuged and the supernatant fractions analysed for parent compound by mass spectrometry (LC-MS/MS).
(§2) The amount of compound remaining (expressed as %) was determined from the MS response in each sample relative to that in the T=0 samples, and used to determine the half-life and intrinsic clearance of the compound.

[2] = Hepatocyte stability assay, mouse; type: in vitro ADME; conditions: male, CD-1, pooled hepatocytes
Protocol: as §1, §2

[3] = Hepatocyte stability assay, dog; type: in vitro ADME; conditions: male, Beagle, pooled hepatocytes
Protocol: as §1, §2

[4] = tested on: pSTAT3 in IL-22 stimulated HT29 cells; experiment: pSTAT3 inhibition in response to IL-22 stimulation in serum starved HT29 cells; type: cell-based; conditions: Homo sapiens, HT-29
Protocol: HT29 cells were serum starved overnight before the four test compounds were diluted to generate a 9-point semi-log dose dilution with a top concentration of 10 μM, plus vehicle control. HT29 cells were incubated with the test compounds for 20 minutes at 37° C. HT29 cells were incubated for a further 15 minutes with 10 ng/ml human IL-22 before cells were fixed with 4% PFA for 10 minutes, and 90% methanol for 30 minutes before being labelled with a phospho-STAT3Y705 antibody (CST #9145). Cells were rinsed three times using 0.5% BSA/PBS solution before being incubated with Alexa-488 anti-rabbit secondary antibodies.
Mean fluorescence intensity of phospho-STAT3 in single cells was analysed by flow cytometry using an Intellicyt iQue instrument and FlowJo software. The IC50 was determined using a four-parameter analysis following removal of background signal and normalisation to the DMSO control.

[5] = Hepatocyte stability assay, human; type: in vitro ADME; conditions: both sexes, pooled hepatocytes; for half-life: human
Protocol: as §1, §2

JAK3 = JAK3 (Homo sapiens (Human), UniProt P52333); experiment: JAK3 kinase inhibition assay (33P-ATP filter binding, Reaction Biology); type: biochemical
Protocol: (§3) The compound of the formula (1) was assayed for its ability to inhibit TYK2 kinase and other JAK kinases.
(§4) Substrates and kinases used in the assays are identified in Table 12 below.
(§5) Kinase assays were performed at Reaction Biology Corp., Malvern, Pennsylvania, USA, using the general procedure set out below. In the assays, the ATP concentration was 100 μM and the top compound concentrations were 10 μM.
(§6) Note that the TYK2 and JAK kinase data in Table 7 on page 61 of WO 2015/032423 were generated using an assay in which the ATP concentration was 10 μM whereas, as indicated above, the assay described in the protocol below used an ATP concentration of 100 μM. […]

[6] = Solubility at 25° C. by HPLC of filtrates after equilibration of Form A in solvents; type: physicochemical; conditions: for solubility: 25 °C, organic solvent or mixture, thermodynamic from solid
JAK1 = JAK1 (Homo sapiens (Human), UniProt P23458); experiment: JAK1 kinase inhibition assay (33P-ATP filter binding, Reaction Biology); type: biochemical; conditions: ratio of IC50 to TYK2 IC50
Protocol: as §3, §4, §5, §6

TYK2 kinase = TYK2 kinase (Homo sapiens (Human), UniProt P29597); experiment: TYK2 kinase inhibition assay (33P-ATP filter binding, Reaction Biology); type: biochemical; conditions: ratio of IC50 to TYK2 IC50
Protocol: as §3, §4, §5, §6

JAK2 = JAK2 kinase inhibition assay (33P-ATP filter binding, Reaction Biology); type: biochemical
Protocol: as §3, §4, §5, §6

[7] = Dynamic vapour sorption (DVS); type: physicochemical
Protocol: Sorption isotherms were obtained using a Hiden Isochema moisture sorption analyser (model IGAsorp), controlled by IGAsorp Systems Software V6.50.48. The sample was maintained at a constant temperature (25° C.) by the instrument controls. The humidity was controlled by mixing streams of dry and wet nitrogen, with a total flow of 250 ml·min^−1. The instrument was verified for relative humidity content by measuring three calibrated Rotronic salt solutions (10-50-88%). The weight change of the sample was monitored as a function of humidity by a microbalance (accuracy +/−0.005 mg). A defined amount of sample was placed in a tared mesh stainless steel basket under ambient conditions. A full experimental cycle typically consisted of three scans (sorption, desorption and sorption) at a constant temperature (25° C.) and 10% RH intervals over a 0-90% range (60 minutes for each humidity level).

[8] = Compression stability test (10×10^4N force); type: physicochemical
Protocol: Compression stability tests were carried out on samples from two batches of crystalline Form A and samples from two batches of Crystalline Form B. One pair of samples of Form A and Form B was subjected to compression under 10×10^4N force for 23 and 23¾ hours respectively to assess the impact upon form fate and chemical stability.
The other pair of samples of Form A and Form B was subjected to similar compression pressures over an extended duration of 7 days to assess the impact of prolonged compression force upon form fate and chemical stability.

[9] = IL-22 stimulated serum starved HT29 cells, read-out: pSTAT3 inhibition IC50
[10] = Human hepatocytes, read-out: T1/2

Chain of JAK3 (P52333 781-1124): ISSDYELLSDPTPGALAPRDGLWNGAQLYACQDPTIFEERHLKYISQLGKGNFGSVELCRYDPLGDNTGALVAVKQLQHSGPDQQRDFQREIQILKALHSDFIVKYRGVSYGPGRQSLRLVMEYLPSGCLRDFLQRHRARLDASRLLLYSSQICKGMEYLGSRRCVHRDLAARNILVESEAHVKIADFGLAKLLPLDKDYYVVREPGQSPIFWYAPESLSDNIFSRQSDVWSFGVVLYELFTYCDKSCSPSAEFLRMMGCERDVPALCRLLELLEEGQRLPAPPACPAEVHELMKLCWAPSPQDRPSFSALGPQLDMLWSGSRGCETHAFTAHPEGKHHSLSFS
Chain of JAK1 (P23458 866-1154): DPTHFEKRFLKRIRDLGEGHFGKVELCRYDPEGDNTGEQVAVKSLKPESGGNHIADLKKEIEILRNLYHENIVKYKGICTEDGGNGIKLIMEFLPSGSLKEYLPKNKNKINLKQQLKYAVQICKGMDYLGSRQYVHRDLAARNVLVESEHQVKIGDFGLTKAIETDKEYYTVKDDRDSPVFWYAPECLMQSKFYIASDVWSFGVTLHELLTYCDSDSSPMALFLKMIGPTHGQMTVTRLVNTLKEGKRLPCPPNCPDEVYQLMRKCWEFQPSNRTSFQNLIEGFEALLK
Chain of TYK2 kinase (P29597 833-1187): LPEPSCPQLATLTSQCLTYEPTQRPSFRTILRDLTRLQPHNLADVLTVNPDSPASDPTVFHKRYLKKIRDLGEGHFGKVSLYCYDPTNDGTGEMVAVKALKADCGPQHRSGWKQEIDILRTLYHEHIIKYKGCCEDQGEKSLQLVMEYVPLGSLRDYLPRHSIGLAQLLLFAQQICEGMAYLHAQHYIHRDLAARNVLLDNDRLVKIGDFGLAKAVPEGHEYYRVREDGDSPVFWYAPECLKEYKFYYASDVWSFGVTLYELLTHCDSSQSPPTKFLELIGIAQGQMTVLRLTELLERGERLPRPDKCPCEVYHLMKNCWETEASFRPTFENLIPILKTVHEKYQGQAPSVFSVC

NC(=O)c1nc(-c2c(Cl)cccc2Cl)oc1Nc1ccc(C(=O)N2CCOCC2)cc1 [Comparative Compound B, 2-(2,6-dichloro-phenyl)-5-[4-(morpholine-4-carbonyl)-phenylamino]-oxazole-4-carboxylic acid amide, reference compound]
half-life [1]: 14.8 min | half-life [2]: 27 min | half-life [3]: 53.5 min | IC50 [4, 9]: 0.053 µM | half-life [5, 10]: 124 min | half-life ([5]; human hepatocytes, read-out: half-life in humans): > 120 min

NC(=O)c1nc(-c2c(Cl)cccc2Cl)oc1Nc1ccc(C(=O)N2CCS(=O)(=O)CC2)cc1 [Compound (1), 2-(2,6-dichlorophenyl)-5-[4-(1,1-dioxo-1,4-thiazinane-4-carbonyl)anilino]oxazole-4-carboxamide]
selectivity for TYK2 compared to JAK3 (JAK3; biochemical assays): ~110 fold | Selectivity v TYK2: JAK3 (JAK3; ratio of IC50 to TYK2 IC50): 111.6 | Solubility at 25° C. ([6]; 2-Chlorobutane): < 1000 µg/mL | Solubility at 25° C. ([6]; 4:1 THF/water): > 10000 µg/mL | Solubility at 25° C. ([6]; Cyclohexane): < 1000 µg/mL | Solubility at 25° C. ([6]; DCM): > 10000 µg/mL | Solubility at 25° C. ([6]; Nitromethane): > 10000 µg/mL | solubility ([6]; TBME): < 1000 µg/mL | Solubility at 25° C. ([6]; THF): > 10000 µg/mL | Solubility at 25° C. ([6]; Water): < 1000 µg/mL | solubility ([6]; anisole): > 10000 µg/mL | solubility ([6]; heptane, no peak detected in the chromatogram for the filtrate (×100 dilution)): < 1000 µg/mL | half-life [1]: 30.6 min | Selectivity v TYK2: JAK1 (JAK1): 10.5 | half-life [2]: 65.3 min | half-life [3]: > 460 min | hepatocyte CLint [3]: < 3 µL/min/1e6 cells | Selectivity v TYK2: TYK2 (TYK2 kinase): 1 | IC50 ([4]; IL-22 stimulated HT29 cells, read-out: IC50 against pSTAT3 inhibition): < 0.1 µM | IC50 [4, 9]: 0.016 µM | half-life [5, 10]: > 460 min | hepatocyte CLint ([5]; Human hepatocytes): < 3 µL/min/1e6 cells | selectivity for TYK2 compared to JAK2 (JAK2; biochemical assays): approximately 25 fold | Selectivity v TYK2: JAK2 (JAK2; ratio of IC50 to TYK2 IC50): 26.3

NC(=O)c1nc(-c2c(Cl)cccc2Cl)oc1Nc1ccc(C(=O)N2CCS(=O)(=O)CC2)cc1 [Form B, 2-(2,6-dichlorophenyl)-5-[4-(1,1-dioxo-1,4-thiazinane-4-carbonyl)anilino]oxazole-4-carboxamide]
XRPD examination of the solid isolated post-DVS ([7]; at 0 and 90% RH): no clear evidence of form modification | DVS total weight gain upon sorption ([7]; from 0 to 90% RH, 25° C.): ca. 0.57 wt % | DVS weight reduction upon the first desorption ([7]; from 50 to 0% RH, 25° C.): ca. 0.38 wt % | DVS hysteresis ([7]; repeat desorption and sorption, most evident between 10 and 60% RH): ca. 0.11 wt % | HPLC assessment post-compression (chemical stability) ([8]; compression for 7 days): no change to the impurity profile; also recorded: no discernible chemical degradation | XRPD examination of solids isolated post-compression (form fate) ([8]; compression for both ca. 1 and 7 days): diffraction pattern matching the input Pattern B but of reduced diffraction resolution | HPLC assessment post-compression (chemical stability) ([8]; compression for ca. 1 day (23 / 23¾ hours), 10×10^4N): no change to the impurity profile; also recorded: no discernible chemical degradation
